Converted amounts (≈) assume the structure as drawn.
Assays:
[1] = tested on: methicillin-sensitive Staphylococcus aureus; assay: MIC by broth micro-dilution (CLSI), methicillin-sensitive S. aureus; format: cell-based; conditions: Staphylococcus aureus, ATCC 29213 / MSSA, MSSA S. aureus ATCC29213; read-out: MIC
[2] = tested on: carbapenem sensitive Escherichia coli; assay: MIC by broth micro-dilution (CLSI), carbapenem sensitive E. coli; format: cell-based; conditions: Escherichia coli, ATCC25922, ESBL −ve E. coli ATCC25922; read-out: MIC
[3] = tested on: carbapenemase producing K. pneumoniae; assay: MIC by broth micro-dilution (CLSI), carbapenemase producing K. pneumoniae; format: cell-based, Klebsiella pneumoniae; conditions: Klebsiella pneumoniae, ATCCBAA1705, KPC-2 K. pneumoniae ATCC BAA-1705; read-out: MIC
[4] = tested on: carbapenem sensitive Pseudomonas aeruginosa; assay: MIC by broth micro-dilution (CLSI), carbapenem sensitive P. aeruginosa; format: cell-based; conditions: Pseudomonas aeruginosa, ATCC27853, Meropenem susceptible P. aeruginosa ATCC27853; read-out: MIC

Structure (SMILES) | MIC [1] [µg/mL] | MIC [2] [µg/mL] | MIC [3] [µg/mL] | MIC [4] [µg/mL]
C[C@@H](NC(=O)Cn1cnnn1)[C@H]1C(=O)N2C(C(=O)O)=C(S[C@@H]3CN[C@H](C(=O)N4CCC(N5CC(CN)C5)CC4)C3)[C@H](C)[C@H]12 [Example 343, (4R,5S,6R)-6-((R) - 1-(2-(1H-tetrazol-1-yl)acetamido)ethyl)-3-((3S,5S)-5-(4-(3-(aminomethyl)azetidin-1-yl)piperidine-1-carbonyl)pyrrolidin-3-ylthio)-4-methyl-7-oxo-1-azabicycio[3.2.0]hept-2-ene-2-carboxylic acid] | 16 (≈ 25.9 µM) | 2 (≈ 3.24 µM) | 8 (≈ 13 µM) | 8 (≈ 13 µM)
C[C@@H](NC(=O)Cn1cnnn1)[C@H]1C(=O)N2C(C(=O)O)=C(S[C@@H]3CN[C@H](C(=O)N4CC(F)(CN)C4)C3)[C@H](C)[C@H]12 [Example 344, (4R,5S,6R)-6-((R) - 1-(2-(1H-tetrazol-1-yl)acetamido)ethyl)-3-((3S,5S)-5-(3-(aminomethyl)-3-fluoroazetidine-1-carbonyl)pyrrolidin-3-ylthio)-4-methyl-7-oxo-1-azabicyclo[3.2.0]hept-2-ene-2-carboxylic acid] | 16 (≈ 29 µM) | 1 (≈ 1.81 µM) | 16 (≈ 29 µM) | 16 (≈ 29 µM)
C[C@@H](NC(=O)Cn1cnnn1)[C@H]1C(=O)N2C(C(=O)O)=C(S[C@@H]3CN[C@H](C(=O)N4C[C@H]5CC[C@@H](C4)[C@H]5N)C3)[C@H](C)[C@H]12 [Example 345, (4R,5S,6R)-6-((R) - 1-(2-(1H-tetrazol-1-yl)acetamido)ethyl)-3-((3S,5S)-5-((1R,5S,8S)-8-amino-3-azabicyclo[3.2.0]octane-3-carbonyl)pyrrolidin-3-ylthio)-4-methyl-7-oxo-1-azabicyclo[3.2.0]hept-2-ene-2-carboxylic acid] | 64 (≈ 112 µM) | 8 (≈ 13.9 µM) | 32 (≈ 55.8 µM) | 128 (≈ 223 µM)
C[C@@H](NC(=O)Cn1cnnn1)[C@H]1C(=O)N2C(C(=O)O)=C(S[C@@H]3CN[C@H](C(=O)N4CCC(F)(CN)CC4)C3)[C@H](C)[C@H]12 [Example 346, (4R,5S,6R)-6-((R) - 1-(2-(1H-tetrazol-1-yl)acetamido)ethyl)-3-((3S,5S)-5-(4-(aminomethyl)-4-fluoropiperidine-1-carbonyl)pyrrolidin-3-ylthio)-4-methyl-7-oxo-1-azabicyclo[3.2.0]hept-2-ene-2-carboxylic acid] | 16 (≈ 27.6 µM) | 1 (≈ 1.73 µM) | 8 (≈ 13.8 µM) | 16 (≈ 27.6 µM)
C[C@@H](NC(=O)Cn1nnnc1C(F)(F)F)[C@H]1C(=O)N2C(C(=O)O)=C(S[C@@H]3CN[C@H](C(=O)N4CC[C@@H](N)C4)C3)[C@H](C)[C@H]12 [Example 347, (4R,5S,6R)-3-((3S,5S)-5-((R)-3-aminopyrrolidine-1-carbonyl)pyrrolidin-3-ylthio)-4-methyl-7-oxo-6-((R)-1-(2-(5-(trifluoromethyl)-1H-tetrazol-1-yl)acetamido)ethyl)-1-azabicyclo[3.2.0]hept-2-ene-2-carboxylic acid] | 4 (≈ 6.65 µM) | 0.5 (≈ 0.831 µM) | 16 (≈ 26.6 µM) | > 128
C[C@@H](NC(=O)Cn1nnnc1C(F)(F)F)[C@H]1C(=O)N2C(C(=O)O)=C(S[C@@H]3CN[C@H](C(=O)N(C)C)C3)[C@H](C)[C@H]12 [Example 348, (4R,5S,6R)-3-((3S,5S)-5-(dimethylcarbamoyl)pyrrolidin-3-ylthio)-4-methyl-7-oxo-6-((R)-1-(2-(5-(trifluoromethyl)-1H-tetrazol-1-yl)acetamido)ethyl)-1-azabicyclo[3.2.0]hept-2-ene-2-carboxylic acid] | 8 (≈ 14.3 µM) | 1 (≈ 1.78 µM) | 16 (≈ 28.5 µM) | > 128
C[C@@H](NC(=O)Cn1nnnc1C(F)F)[C@H]1C(=O)N2C(C(=O)O)=C(S[C@@H]3CN[C@H](C(=O)N4CC[C@@H](N)C4)C3)[C@H](C)[C@H]12 [Example 349, (4R,5S,6R)-3-((3S,5S)-5-((R)-3-aminopyrrolidine-1-carbonyl)pyrrolidin-3-ylthio)-6-((R)-1-(2-(5-(difluoromethyl)-1H-tetrazol-1-yl)acetamido)ethyl)-4-methyl-7-oxo-1-azabicyclo[3.2.0]hept-2-ene-2-carboxylic acid] | 4 (≈ 6.85 µM) | 0.25 (≈ 0.428 µM) | 4 (≈ 6.85 µM) | 32 (≈ 54.8 µM)
C[C@@H](NC(=O)Cn1nnnc1C(F)F)[C@H]1C(=O)N2C(C(=O)O)=C(S[C@@H]3CN[C@H](C(=O)N(C)C)C3)[C@H](C)[C@H]12 [Example 350, (4R,5S,6R)-6-((R)-1-(2-(5-(difluoromethyl)-1H-tetrazol-1-yl)acetamido)ethyl)-3-((3S,5S)-5-(dimethylcarbamoyl)pyrrolidin-3-ylthio)-4-methyl-7-oxo-1-azabicyclo[3.2.0]hept-2-ene-2-carboxylic acid] | 2 (≈ 3.69 µM) | 0.25 (≈ 0.461 µM) | 1 (≈ 1.84 µM) | 128 (≈ 236 µM)
C[C@@H](NC(=O)Cn1cnnn1)[C@H]1C(=O)N2C(C(=O)O)=C(S[C@@H]3CN[C@H](C(=O)N4CCC5(CC4)CC(F)(F)CN5)C3)[C@H](C)[C@H]12 [Example 351, (4R,5S,6R)-6-((R)-1-(2-(1H-tetrazol-1-yl)acetamido)ethyl)-3-((3S,5S)-5-(3,3-difluoro-1,8-diazaspiro[4.5]decane-8-carbonyl)pyrrolidin-3-ylthio)-4-methyl-7-oxo-1-azabicyclo[3.2.0]hept-2-ene-2-carboxylic acid] | 16 (≈ 25.7 µM) | 1 (≈ 1.6 µM) | 4 (≈ 6.41 µM) | > 128
C[C@@H](NC(=O)Cn1cnnn1)[C@H]1C(=O)N2C(C(=O)O)=C(S[C@@H]3CN[C@H](C(=O)N4CCC5(CCCN5)CC4)C3)[C@H](C)[C@H]12 [Example 352, (4R,5S,6R)-3-((3S,5S)-5-(1,8-diazaspiro[4.5]decane-8-carbonyl)pyrrolidin-3-ylthio)-6-((R)-1-(2-(1H-tetrazol-1-yl)acetamido)ethyl)-4-methyl-7-oxo-1-azabicyclo[3.2.0]hept-2-ene-2-carboxylic acid] | 4 (≈ 6.81 µM) | 0.25 (≈ 0.425 µM) | 2 (≈ 3.4 µM) | 2 (≈ 3.4 µM)
C[C@@H](NC(=O)Cn1cnnn1)[C@H]1C(=O)N2C(C(=O)O)=C(S[C@@H]3CN[C@H](C(=O)N4C[C@@H]5NCCO[C@@H]5C4)C3)[C@H](C)[C@H]12 [Example 353, (4R,5S,6R)-6-((R)-1-(2-(1H-tetrazol-1-yl)acetamido)ethyl)-4-methyl-3-((3S,5S)-5-((4aS,7aR)-octahydropyrrolo[3,4-b][1,4]oxazine-6-carbonyl)pyrrolidin-3-ylthio)-7-oxo-1-azabicyclo[3.2.0]hept-2-ene-2-carboxylic acid] | 16 (≈ 27.8 µM) | 0.25 (≈ 0.434 µM) | 2 (≈ 3.47 µM) | 16 (≈ 27.8 µM)
C[C@@H](NC(=O)Cn1cnnn1)[C@H]1C(=O)N2C(C(=O)O)=C(S[C@@H]3CNC(CNC(=O)[C@H]4CSCN4)C3)[C@H](C)[C@H]12 (some centres unmarked) [Example 354] | 2 (≈ 3.54 µM) | 0.125 (≈ 0.221 µM) | 1 (≈ 1.77 µM) | 32 (≈ 56.6 µM)
C[C@@H](NC(=O)Cn1nnnc1C(C)(C)C)[C@H]1C(=O)N2C(C(=O)O)=C(S[C@@H]3CN[C@H](C(=O)N4CC[C@@H](N)C4)C3)[C@H](C)[C@H]12 [Example 355, (4R,5S,6R)-3-((3S,5S)-5-((R)-3-aminopyrrolidine-1-carbonyl)pyrrolidin-3-ylthio)-6-((R)-1-(2-(5-tert-hutyl-1H-tetrazol-1-yl)acetamido)ethyl)-4-methyl-7-oxo-1-azabicyclo[3.2.0]hept-2-ene-2-carboxylic acid] | 4 (≈ 6.78 µM) | 1 (≈ 1.7 µM) | 16 (≈ 27.1 µM) | 128 (≈ 217 µM)
C[C@@H](NC(=O)Cn1nnnc1C(C)(C)C)[C@H]1C(=O)N2C(C(=O)O)=C(S[C@@H]3CN[C@H](C(=O)N(C)C)C3)[C@H](C)[C@H]12 [Example 356, (4R,5S,6R)-6-((R)-1-(2-(5-tert-butyl-1H-tetrazol-1-yl)acetamido)ethyl)-3-((3S,5S)-5-(dimethylcarbamoyl)pyrrolidin-3-ylthio)-4-methyl-7-oxo-1-azabicyclo[3.2.0]hept-2-ene-2-carboxylic acid] | 4 (≈ 7.29 µM) | 1 (≈ 1.82 µM) | 16 (≈ 29.2 µM) | > 128
C[C@@H](NC(=O)Cn1nnnc1-c1cccs1)[C@H]1C(=O)N2C(C(=O)O)=C(S[C@@H]3CN[C@H](C(=O)N(C)C)C3)[C@H](C)[C@H]12 [Example 357, (4R,5S,6R)-3-((3S,5S)-5-(dimethylcarbamoyl)pyrrolidin-3-ylthio)-4-methyl-7-oxo-6-((R)-1-(2-(5-(thiophen-2-yl)-1H-tetrazol-1-yl)acetamido)ethyl)-1-azabicyclo[3.2.0]hept-2-ene-2-carboxylic acid] | 2 (≈ 3.48 µM) | 1 (≈ 1.74 µM) | 32 (≈ 55.7 µM) | > 128
C[C@@H](NC(=O)Cn1nnnc1-c1cccs1)[C@H]1C(=O)N2C(C(=O)O)=C(S[C@@H]3CN[C@H](C(=O)N4CC[C@@H](N)C4)C3)[C@H](C)[C@H]12 [Example 358, (4R,5S,6R)-3-((3S,5S)-5-((R)-3-aminopyrrolidine-1-carbonyl)pyrrolidin-3-ylthio)-4-methyl-7-oxo-6-((R)-1-(2-(5-(thiophen-2-yl)-1H-tetrazol-1-yl)acetamido)ethyl)-1-azabicyclo[3.2.0]hept-2-ene-2-carboxylic acid] | 1 (≈ 1.62 µM) | 1 (≈ 1.62 µM) | 32 (≈ 52 µM) | > 128
C[C@@H](NC(=O)Cn1cnnn1)[C@H]1C(=O)N2C(C(=O)O)=C(S[C@@H]3CN[C@H](C(=O)N4CCN(C)CC4)C3)[C@H](C)[C@H]12 [Example 359, (4R,5S,6R)-6-((R)-1-(2-(1H-tetrazol-1-yl)acetamido)ethyl)-4-methyl-3-((3S,5S)-5-(4-methylpiperazine-1-carbonyl)pyrrolidin-3-ylthio)-7-oxo-1-azabicyclo[3.2.0]hept-2-ene-2-carboxylic acid] | 8 (≈ 14.6 µM) | 0.5 (≈ 0.913 µM) | 2 (≈ 3.65 µM) | 16 (≈ 29.2 µM)

— patent publication US11180504B2 (ORCHID PHARMA LTD., priority 2016, dated 2021)
